We go through 18 compounds from patent US20240092790A1, “DIHYDROFUROPYRIDINE DERIVATIVES AS RHO- KINASE INHIBITORS” (CHIESI FARMACEUTICI S.P.A., priority 2020, published 2024).

What all share (assay type): biochemical
One assay concerns the target PKA (Homo sapiens, UniProt P17612). Kind of assay: In vitro inhibitory activity assay for PKA (ADP-Glo), reported as selectivity ratio vs ROCK2. The note with it: Ki value for PKA divided by Ki value of ROCK2. How it is done:
In Vitro Inhibitory Activity Assay Description for PKA
The effectiveness of compounds of the present invention to inhibit PKA activity can be determined in a 10 μl assay containing 40 mM Tris pH7.5, 20 mM MgCl2 0.1 mg/ml BSA, 50 μM DTT and 260 μM peptide substrate (kemptide) using an ADP-Glo kit (Promega). Compounds were dissolved in DMSO such that the final concentration of DMSO was 1% in the assay. All reactions/incubations are performed at 25° C. Compound and PKA enzyme (6 μl) were mixed and incubated for 30 mins. Reactions were initiated by addition of ATP (4 μl) such that the final concentration of ATP in the assay was 10 μM. After a 30 minute incubation 10p of ADP-Glo Reagent was added and after a further 1 hour incubation 20 μl of Kinase Detection Buffer was added and the mixture incubated for a further 45 minutes. The luminescent signal was measured on a luminometer. […] Compounds were tested in dose-response format and the inhibition of kinase activity was calculated at each concentration of compound. To determine the IC50 (concentration of compound required to inhibit 50% of the enzyme activity) data were fit to a plot of % inhibition vs Log10 compound concentration using a sigmoidal fit with a variable slope and fixing the maximum to 100% and the minimum to 0%. To determine the Ki values the Cheng-Prusoff equation was utilized (Ki=IC50/(1+[S]/Km).
In vitro inhibitory activities for PKA were reported as selectivity ratio vs. ROCK-2.

A further assay addresses ROCK2 (Homo sapiens, UniProt O75116). In words: In vitro inhibitory activity assay ROCK2 (ADP-Glo). The note with it: ATP 200 μM, Cheng-Prusoff; read-out: ROCK2 (Ki, range of activity). How it is done: (§1) In Vitro Inhibitory Activity Assay Description ROCK1 and ROCK2
(§2) The effectiveness of compounds of the present invention to inhibit Rho kinase activity can be determined in a 10 μl assay containing 40 mM Tris pH7.5, 20 mM MgCl2 0.1 mg/mL BSA, 50 μM DTT and 2.5 μM peptide substrate (Myelin Basic Protein) using an ADP-Glo kit (Promega). Compounds were dissolved in DMSO such that the final concentration of DMSO was 1% in the assay. All reactions/incubations are performed at 25° C. Compound (2 ul) and either Rho kinase 1 or 2 (4 μl) were mixed and incubated for 30 mins. Reactions were initiated by addition of ATP (4 μl) such that the final concentration of ATP in the assay was 200 μM. After a 1 hour incubation 10 μl of ADP-Glo Reagent was added and after a further 1 hour incubation 20 ul of Kinase Detection Buffer was added and the mixture incubated for a further 45 minutes. The luminescent signal was measured on a luminometer. […] Compounds were tested in dose-response format and the inhibition of kinase activity was calculated at each concentration of compound. To determine the IC50 (concentration of compound required to inhibit 50% of the enzyme activity) data were fit to a plot of % inhibition vs Log 10 compound concentration using a sigmoidal fit with a variable slope and fixing the maximum to 100% and the minimum to 0%. To determine the Ki values the Cheng-Prusoff equation was utilized (Ki=IC50/(1+[S]/Km).

The target in the next assay is ROCK1 (Homo sapiens, UniProt Q13464). In words: In vitro inhibitory activity assay ROCK1 (ADP-Glo). The note with it: ATP 200 μM, Cheng-Prusoff; read-out: ROCK 1 (Ki, range of activity). How it is done: as §1, §2
Sequence of ROCK1 (Q13464 whole entry): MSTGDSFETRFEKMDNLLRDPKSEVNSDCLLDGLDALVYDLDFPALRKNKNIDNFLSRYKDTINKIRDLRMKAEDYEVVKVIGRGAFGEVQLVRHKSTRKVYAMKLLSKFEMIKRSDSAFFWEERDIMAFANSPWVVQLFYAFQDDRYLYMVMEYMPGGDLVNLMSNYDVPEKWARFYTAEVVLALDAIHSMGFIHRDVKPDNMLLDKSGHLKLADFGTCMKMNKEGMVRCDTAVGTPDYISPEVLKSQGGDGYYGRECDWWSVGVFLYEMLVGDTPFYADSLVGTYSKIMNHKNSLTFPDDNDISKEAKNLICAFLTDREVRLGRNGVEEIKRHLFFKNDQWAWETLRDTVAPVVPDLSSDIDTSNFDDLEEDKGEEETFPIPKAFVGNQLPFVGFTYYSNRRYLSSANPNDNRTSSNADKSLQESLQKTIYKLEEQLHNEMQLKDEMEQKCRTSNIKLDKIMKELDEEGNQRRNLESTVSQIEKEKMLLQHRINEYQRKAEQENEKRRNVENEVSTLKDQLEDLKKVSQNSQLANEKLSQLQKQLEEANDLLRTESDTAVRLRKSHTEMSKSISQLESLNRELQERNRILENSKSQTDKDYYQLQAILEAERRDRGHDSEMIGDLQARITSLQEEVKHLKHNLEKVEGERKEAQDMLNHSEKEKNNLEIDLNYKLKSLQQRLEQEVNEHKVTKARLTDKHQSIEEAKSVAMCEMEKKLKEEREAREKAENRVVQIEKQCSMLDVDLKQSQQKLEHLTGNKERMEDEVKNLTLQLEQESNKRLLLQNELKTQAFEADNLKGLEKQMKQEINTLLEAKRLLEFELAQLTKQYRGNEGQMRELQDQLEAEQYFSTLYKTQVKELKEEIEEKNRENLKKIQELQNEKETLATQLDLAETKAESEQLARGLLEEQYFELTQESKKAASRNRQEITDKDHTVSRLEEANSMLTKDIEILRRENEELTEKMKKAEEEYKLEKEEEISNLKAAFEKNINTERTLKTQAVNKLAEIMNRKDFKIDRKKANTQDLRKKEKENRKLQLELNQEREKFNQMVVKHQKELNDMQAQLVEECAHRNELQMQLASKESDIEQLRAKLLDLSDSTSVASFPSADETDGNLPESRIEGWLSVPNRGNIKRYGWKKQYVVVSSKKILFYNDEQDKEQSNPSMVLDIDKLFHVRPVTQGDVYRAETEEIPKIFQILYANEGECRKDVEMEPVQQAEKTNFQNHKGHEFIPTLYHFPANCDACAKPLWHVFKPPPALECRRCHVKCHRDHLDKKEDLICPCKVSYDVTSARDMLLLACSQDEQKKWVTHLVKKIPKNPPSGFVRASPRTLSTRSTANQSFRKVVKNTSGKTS

Sequence of ROCK2 (O75116 whole entry): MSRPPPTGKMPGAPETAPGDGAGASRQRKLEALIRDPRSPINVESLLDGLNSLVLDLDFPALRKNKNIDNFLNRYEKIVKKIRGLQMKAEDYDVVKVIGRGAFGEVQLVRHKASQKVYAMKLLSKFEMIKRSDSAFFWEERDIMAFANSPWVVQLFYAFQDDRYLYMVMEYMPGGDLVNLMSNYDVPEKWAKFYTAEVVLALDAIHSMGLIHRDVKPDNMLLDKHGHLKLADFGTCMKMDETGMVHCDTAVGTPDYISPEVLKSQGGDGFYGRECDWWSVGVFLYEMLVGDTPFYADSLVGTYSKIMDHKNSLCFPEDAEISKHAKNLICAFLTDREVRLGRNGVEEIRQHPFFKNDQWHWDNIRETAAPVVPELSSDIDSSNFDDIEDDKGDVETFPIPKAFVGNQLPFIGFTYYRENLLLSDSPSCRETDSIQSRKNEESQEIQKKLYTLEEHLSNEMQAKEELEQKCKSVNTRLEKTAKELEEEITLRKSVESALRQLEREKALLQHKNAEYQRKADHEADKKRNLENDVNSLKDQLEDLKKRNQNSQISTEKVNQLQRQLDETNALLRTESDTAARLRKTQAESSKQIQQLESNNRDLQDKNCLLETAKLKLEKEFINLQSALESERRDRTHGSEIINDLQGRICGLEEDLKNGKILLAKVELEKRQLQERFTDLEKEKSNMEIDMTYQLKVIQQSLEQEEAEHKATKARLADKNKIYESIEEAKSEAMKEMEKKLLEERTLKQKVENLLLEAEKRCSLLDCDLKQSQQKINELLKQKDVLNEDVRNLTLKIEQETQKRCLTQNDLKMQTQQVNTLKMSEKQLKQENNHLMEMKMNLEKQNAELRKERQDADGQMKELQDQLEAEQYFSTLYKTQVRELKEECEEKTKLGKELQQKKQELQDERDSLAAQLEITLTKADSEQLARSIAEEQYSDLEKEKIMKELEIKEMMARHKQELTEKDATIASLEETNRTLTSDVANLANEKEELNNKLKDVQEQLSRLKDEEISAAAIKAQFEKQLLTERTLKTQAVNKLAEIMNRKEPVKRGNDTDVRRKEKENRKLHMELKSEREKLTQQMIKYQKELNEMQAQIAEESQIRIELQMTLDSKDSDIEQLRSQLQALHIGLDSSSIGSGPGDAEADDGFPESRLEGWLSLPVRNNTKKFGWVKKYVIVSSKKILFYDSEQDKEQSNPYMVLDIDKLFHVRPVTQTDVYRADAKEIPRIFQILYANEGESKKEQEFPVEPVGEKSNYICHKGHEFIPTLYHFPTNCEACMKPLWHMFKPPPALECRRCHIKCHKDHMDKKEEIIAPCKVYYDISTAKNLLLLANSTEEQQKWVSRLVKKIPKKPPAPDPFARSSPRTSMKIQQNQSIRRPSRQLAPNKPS

As to `CC(C)(C)N1CC(CNC(=O)c2cccc(CNc3ncc(-c4ccnc(N)n4)c4c3CCO4)c2)CC1=O` (single isomer, unassigned) [Example 32, 3-(((7-(2-Aminopyrimidin-4-yl)-2,3-dihydrofuro[3,2-c]pyridin-4-yl)amino)methyl)-N-((1-(tert-butyl)-5-oxopyrrolidin-3-yl)methyl)benzamide], the “Ratio (PKA/ROCK2)” value at PKA was “*** (ratio≥10)”. The inhibitory constant (Ki) at ROCK2 and at ROCK1 was at most 3 nM throughout.
As to `CC(C)(C)N1CC(CNC(=O)c2cccc(CNc3ncc(-c4ccnc(N)n4)c4c3CCO4)c2)CC1=O` (single isomer, unassigned) [Example 33, 3-(((7-(2-Aminopyrimidin-4-yl)-2,3-dihydrofuro[3,2-c]pyridin-4-yl)amino)methyl)-N-((1-(tert-butyl)-5-oxopyrrolidin-3-yl)methyl)benzamide], the “Ratio (PKA/ROCK2)” value at PKA is on record as “*** (ratio≥10)”. Besides, the Ki on ROCK2 and at ROCK1 was at most 3 nM in each case.
Turning to `CN1CCOC(CNC(=O)c2cccc(CNc3ncc(-c4ccnc(N)n4)c4c3CCO4)c2)C1` (single isomer, unassigned) [Example 34, 3-(((7-(2-Aminopyrimidin-4-yl)-2,3-dihydrofuro[3,2-c]pyridin-4-yl)amino)methyl)-N-((4-methylmorpholin-2-yl)methyl)benzamide], at PKA, the “Ratio (PKA/ROCK2)” value was “*** (ratio≥10)”. Besides, the Ki at ROCK2 and at ROCK1 was at most 3 nM in each case.
As for `CN1CCOC(CNC(=O)c2cccc(CNc3ncc(-c4ccnc(N)n4)c4c3CCO4)c2)C1` (single isomer, unassigned) [Example 35, 3-(((7-(2-Aminopyrimidin-4-yl)-2,3-dihydrofuro[3,2-c]pyridin-4-yl)amino)methyl)-N-((4-methylmorpholin-2-yl)methyl)benzamide], the “Ratio (PKA/ROCK2)” value on PKA is “*** (ratio≥10)”. The Ki at ROCK2 and on ROCK1 was at most 3 nM throughout.
On to `Nc1nccc(-c2cnc(NCc3cccc(C(=O)NC4CC4F)c3)c3c2OCC3)n1` (single isomer, unassigned) [Example 45, Trans 3-(((7-(2-Aminopyrimidin-4-yl)-2,3-dihydrofuro[3,2-c]pyridin-4-yl)amino)methyl)-N-(2-fluorocyclopropyl)benzamide], for which the “Ratio (PKA/ROCK2)” value on PKA is listed as “*** (ratio≥10)”. Further, the Ki at ROCK2 and on ROCK1 was at most 3 nM in each case.
In the case of `Nc1nccc(-c2cnc(NCc3cccc(C(=O)NC4CC4F)c3)c3c2OCC3)n1` (single isomer, unassigned) [Example 46, Trans 3-(((7-(2-Aminopyrimidin-4-yl)-2,3-dihydrofuro[3,2-c]pyridin-4-yl)amino)methyl)-N-(2-fluorocyclopropyl)benzamide], the “Ratio (PKA/ROCK2)” value at PKA is “*** (ratio≥10)”. The inhibition constant Ki on ROCK2 and at ROCK1 was at most 3 nM throughout.
As to `Nc1nccc(-c2cnc(NCc3cccc(C(=O)NC4CCC4)c3)c3c2OCC3)n1` [Example 1, 3-(((7-(2-Aminopyrimidin-4-yl)-2,3-dihydrofuro[3,2-c]pyridin-4-yl)amino)methyl)-N-cyclobutylbenzamide], at PKA, the “Ratio (PKA/ROCK2)” value was “** (5≤ratio<10)”. Also, the Ki on ROCK2 and on ROCK1 was at most 3 nM each time.
For the compound `Nc1nccc(-c2cnc(NCc3cccc(C(=O)NCC4CCOCC4)c3)c3c2OCC3)n1` [Example 2, 3-(((7-(2-Aminopyrimidin-4-yl)-2,3-dihydrofuro[3,2-c]pyridin-4-yl)amino)methyl)-N-((tetrahydro-2H-pyran-4-yl)methyl)benzamide], the “Ratio (PKA/ROCK2)” value at PKA is given as “*** (ratio≥10)”. For the same compound, the Ki on ROCK2 and at ROCK1 was at most 3 nM throughout.
On to `CC1(C)CC(NC(=O)c2cccc(CNc3ncc(-c4ccnc(N)n4)c4c3CCO4)c2)CO1` (stereo not drawn) [Example 3, 3-(((7-(2-Aminopyrimidin-4-yl)-2,3-dihydrofuro[3,2-c]pyridin-4-yl)amino)methyl)-N-(5,5-dimethyltetrahydrofuran-3-yl)benzamide], for which, on PKA, the “Ratio (PKA/ROCK2)” value is “*** (ratio≥10)”. Moreover, the Ki on ROCK2 and on ROCK1 was at most 3 nM each time.
In the case of `Nc1nccc(-c2cnc(NCc3cccc(C(=O)NC4CC4)c3)c3c2OCC3)n1` [Example 4, 3-(((7-(2-Aminopyrimidin-4-yl)-2,3-dihydrofuro[3,2-c]pyridin-4-yl)amino)methyl)-N-cyclopropylbenzamide], the “Ratio (PKA/ROCK2)” value at PKA is “*** (ratio≥10)”. The Ki on ROCK2 and on ROCK1 was at most 3 nM in each case.
In the case of `Nc1nccc(-c2cnc(NCc3cccc(C(=O)NCCN4CCCCC4)c3)c3c2OCC3)n1` [Example 5, 3-(((7-(2-Aminopyrimidin-4-yl)-2,3-dihydrofuro[3,2-c]pyridin-4-yl)amino)methyl)-N-(2-(piperidin-1-yl)ethyl)benzamide], the “Ratio (PKA/ROCK2)” value at PKA is given as “*** (ratio≥10)”. The Ki at ROCK2 and at ROCK1 was at most 3 nM in each case.
Turning to `[2H]C([2H])([2H])OCCCNC(=O)c1cccc(CNc2ncc(-c3ccnc(N)n3)c3c2CCO3)c1` [Example 6, 3-(((7-(2-aminopyrimidin-4-yl)-2,3-dihydrofuro[3,2-c]pyridin-4-yl)amino)methyl)-N-(3-(methoxy-d3)propyl)benzamide], the “Ratio (PKA/ROCK2)” value at PKA is “*** (ratio≥10)”. Moreover, the Ki at ROCK2 and on ROCK1 was at most 3 nM each time.
Turning to `Nc1nccc(-c2cnc(NCc3cccc(C(=O)NC4CCOCC4)c3)c3c2OCC3)n1` [Example 7, 3-(((7-(2-Aminopyrimidin-4-yl)-2,3-dihydrofuro[3,2-c]pyridin-4-yl)amino)methyl)-N-(tetrahydro-2H-pyran-4-yl)benzamide], the “Ratio (PKA/ROCK2)” value on PKA was “*** (ratio≥10)”. For the same compound, the Ki at ROCK2 and at ROCK1 was at most 3 nM each time.
Consider `COCCCNC(=O)c1cccc(CNc2ncc(-c3ccnc(N)n3)c3c2CCO3)c1` [Example 8, 3-(((7-(2-Aminopyrimidin-4-yl)-2,3-dihydrofuro[3,2-c]pyridin-4-yl)amino)methyl)-N-(3-methoxypropyl)benzamide], for which the “Ratio (PKA/ROCK2)” value at PKA is “*** (ratio≥10)”. For the same compound, the Ki on ROCK2 and on ROCK1 was at most 3 nM throughout.
As to `COCCNC(=O)c1cccc(CNc2ncc(-c3ccnc(N)n3)c3c2CCO3)c1` [Example 9, 3-(((7-(2-Aminopyrimidin-4-yl)-2,3-dihydrofuro[3,2-c]pyridin-4-yl)amino)methyl)-N-(2-methoxyethyl)benzamide], on PKA, the “Ratio (PKA/ROCK2)” value is given as “*** (ratio≥10)”. In addition, the Ki at ROCK2 and at ROCK1 was at most 3 nM each time.
As for `Nc1nccc(-c2cnc(NCc3cccc(C(=O)NC4CC(F)(F)C4)c3)c3c2OCC3)n1` [Example 10, 3-(((7-(2-Aminopyrimidin-4-yl)-2,3-dihydrofuro[3,2-c]pyridin-4-yl)amino)methyl)-N-(3,3-difluorocyclobutyl)benzamide], the “Ratio (PKA/ROCK2)” value on PKA was “** (5≤ratio<10)”. Also, the Ki at ROCK2 and on ROCK1 was at most 3 nM each time.
Regarding `CC(C)NC(=O)c1cccc(CNc2ncc(-c3ccnc(N)n3)c3c2CCO3)c1` [Example 11, 3-(((7-(2-Aminopyrimidin-4-yl)-2,3-dihydrofuro[3,2-c]pyridin-4-yl)amino)methyl)-N-isopropylbenzamide], at PKA, the “Ratio (PKA/ROCK2)” value is on record as “*** (ratio≥10)”. Moreover, the Ki at ROCK2 and on ROCK1 was 3 to 30 nM in each case.
For `Nc1nccc(-c2cnc(NCc3cccc(C(=O)NCC(F)(F)F)c3)c3c2OCC3)n1` [Example 12, 3-(((7-(2-Aminopyrimidin-4-yl)-2,3-dihydrofuro[3,2-c]pyridin-4-yl)amino)methyl)-N-(2,2,2-trifluoroethyl)benzamide], the “Ratio (PKA/ROCK2)” value at PKA is “*** (ratio≥10)”. The Ki at ROCK2 was at most 3 nM; at ROCK1 it was 3 to 30 nM.
